Among the data in BindingDB's records for doi:10.1021/jm070299x (Bristol Myers Squibb, 2007) are IC50 values, retold here.

The term IC50 denotes the concentration that inhibits the measured activity by half.

The first experiment has as its target Inosine-5'-monophosphate dehydrogenase 2 (Homo sapiens, UniProt P12268). Nature of the experiment: IMPDH2 Enzyme Inhibition and Human T-Lymphoblast (CEM) Proliferation Inhibition Assays. As to conditions: pH 8; 25 °C. The protocol: Inhibition assays were performed using recombinant human IMPDH type 2 and varying concentrations of inhibitor. The production of NADH was monitored by following changes in absorbance at 340 nm. […] The in vivo activities of compounds were also evaluated the inhibition of T-cell proliferation in CEM lymphoblast cells. The EC50/IC50 values were calculated using a four-parameter logistic plot.
`CC(C)(NC(=O)c1cc2[nH]c3ccccc3c(=O)c2cc1F)c1ccccc1` [2-fluoro-9-oxo-N-(2-phenylpropan-2-yl)-9,10-dihydroacridine-3-carboxamide] yielded an IC50 of 830 nM.

Consider `CC(C)(NC(=O)c1cc2[nH]c3ccccc3c(=O)c2cc1F)c1cnc2c(c1)OCCN2` [2-fluoro-9-oxo-N-(2-{2H,3H,4H-pyrido[3,2-b][1,4]oxazin-7-yl}propan-2-yl)-9,10-dihydroacridine-3-carboxamide], for which the 50% inhibitory concentration (IC50) was found to be 920 nM.

Compound `CC(C)(NC(=O)c1cc2[nH]c3ccccc3c(=O)c2cc1F)c1ccccn1` [2-fluoro-9-oxo-N-[2-(pyridin-2-yl)propan-2-yl]-9,10-dihydroacridine-3-carboxamide] gave an IC50 of 1000 nM.

Compound `CC(C)(NC(=O)c1cc2[nH]c3ccccc3c(=O)c2cc1F)c1cccnc1` [2-fluoro-9-oxo-N-[2-(pyridin-3-yl)propan-2-yl]-9,10-dihydroacridine-3-carboxamide] registered an IC50 of 420 nM.

On to `CC(C)(NC(=O)c1cc2[nH]c3ccccc3c(=O)c2cc1F)c1cccc(S(C)(=O)=O)c1` [2-fluoro-N-[2-(3-methanesulfonylphenyl)propan-2-yl]-9-oxo-9,10-dihydroacridine-3-carboxamide], for which the IC50 is 580 nM.

`CC(C)(NC(=O)c1cc2[nH]c3ccccc3c(=O)c2cc1F)c1ccc(S(C)(=O)=O)cc1` [2-fluoro-N-[2-(4-methanesulfonylphenyl)propan-2-yl]-9-oxo-9,10-dihydroacridine-3-carboxamide] showed an IC50 of 480 nM.

For `Cc1ccc(C(C)(C)NC(=O)c2cc3[nH]c4ccccc4c(=O)c3cc2F)cn1` [2-fluoro-N-[2-(6-methylpyridin-3-yl)propan-2-yl]-9-oxo-9,10-dihydroacridine-3-carboxamide], half-maximal inhibition (IC50) required 750 nM.

In turn, `COc1cc(C(C)(C)NC(=O)c2cc3[nH]c4ccccc4c(=O)c3cc2F)cnc1N1CCOCC1` [2-fluoro-N-{2-[5-methoxy-6-(morpholin-4-yl)pyridin-3-yl]propan-2-yl}-9-oxo-9,10-dihydroacridine-3-carboxamide] returned an IC50 of 810 nM.

With `Cc1cc(C(C)(C)NC(=O)c2cc3[nH]c4ccccc4c(=O)c3cc2F)cnc1N1CCOCC1` [2-fluoro-N-{2-[5-methyl-6-(morpholin-4-yl)pyridin-3-yl]propan-2-yl}-9-oxo-9,10-dihydroacridine-3-carboxamide], the IC50 worked out at 870 nM.

`CC(C)(NC(=O)c1cc2[nH]c3ccccc3c(=O)c2cc1F)c1ccc(N2CCOCC2)nc1` [2-fluoro-N-{2-[6-(morpholin-4-yl)pyridin-3-yl]propan-2-yl}-9-oxo-9,10-dihydroacridine-3-carboxamide] registered an IC50 of 660 nM.

Consider `CC(C)(NC(=O)c1ccc2c(=O)c3ccccc3[nH]c2c1)c1ccccc1` [9-oxo-N-(2-phenylpropan-2-yl)-9,10-dihydroacridine-3-carboxamide], for which the IC50 was 2100 nM.

Compound `CC(C)(NC(=O)c1ccc2c(=O)c3ccccc3[nH]c2c1)c1ccccn1` [9-oxo-N-[2-(pyridin-2-yl)propan-2-yl]-9,10-dihydroacridine-3-carboxamide] gave an IC50 of 2200 nM.

`CC(C)(NC(=O)c1ccc2c(=O)c3ccccc3[nH]c2c1)c1cccnc1` [9-oxo-N-[2-(pyridin-3-yl)propan-2-yl]-9,10-dihydroacridine-3-carboxamide]: inhibition was half-maximal at 2200 nM (IC50).

Turning to `CC(C)(NC(=O)c1ccc2c(=O)c3ccccc3[nH]c2c1)c1ccncc1` [9-oxo-N-[2-(pyridin-4-yl)propan-2-yl]-9,10-dihydroacridine-3-carboxamide], the IC50 worked out at 2300 nM.

With `CCN1CCN(c2ccc(C(C)(C)NC(=O)c3cc4[nH]c5ccccc5c(=O)c4cc3F)cn2)CC1` [Acridone-Based Inhibitor, 4m], half-maximal inhibition (IC50) required 770 nM.

The compound `CN(C)CCOc1ccc(C(C)(C)NC(=O)c2cc3[nH]c4ccccc4c(=O)c3cc2F)cc1` [N-(2-{4-[2-(dimethylamino)ethoxy]phenyl}propan-2-yl)-2-fluoro-9-oxo-9,10-dihydroacridine-3-carboxamide] had an IC50 of 560 nM.

Consider `CC(C)(C)NC(=O)c1ccc2c(=O)c3ccccc3[nH]c2c1` [N-tert-butyl-9-oxo-9,10-dihydroacridine-3-carboxamide], for which the IC50 worked out at 3300 nM.

`CN(C)c1cc(C(C)(C)NC(=O)c2cc3[nH]c4ccccc4c(=O)c3cc2F)ccn1` [N-{2-[2-(dimethylamino)pyridin-4-yl]propan-2-yl}-2-fluoro-9-oxo-9,10-dihydroacridine-3-carboxamide] had an IC50 of 640 nM.

As to `CN(C)S(=O)(=O)c1cccc(C(C)(C)NC(=O)c2cc3[nH]c4ccccc4c(=O)c3cc2F)c1` [N-{2-[3-(dimethylsulfamoyl)phenyl]propan-2-yl}-2-fluoro-9-oxo-9,10-dihydroacridine-3-carboxamide], 380 nM corresponded to half-maximal inhibition (IC50).

As to `CN(C)S(=O)(=O)c1ccc(C(C)(C)NC(=O)c2cc3[nH]c4ccccc4c(=O)c3cc2F)cc1` [N-{2-[4-(dimethylsulfamoyl)phenyl]propan-2-yl}-2-fluoro-9-oxo-9,10-dihydroacridine-3-carboxamide], the 50% inhibitory concentration (IC50) was 660 nM.

For the compound `CN(C)c1ccc(C(C)(C)NC(=O)c2cc3[nH]c4ccccc4c(=O)c3cc2F)cn1` [N-{2-[6-(dimethylamino)pyridin-3-yl]propan-2-yl}-2-fluoro-9-oxo-9,10-dihydroacridine-3-carboxamide], the IC50 worked out at 850 nM.

In the case of `CCOC(=O)c1ccc2c(=O)c3ccccc3[nH]c2c1` [ethyl 9-oxo-9,10-dihydroacridine-3-carboxylate], the IC50 was > 10000 nM.

The experiment is the same for the next values; noted with them: pH 8; 25 °C; read-out: IC50.
`CCOC(=O)c1ccc2c(=O)c3ccccc3[nH]c2c1` [ethyl 9-oxo-9,10-dihydroacridine-3-carboxylate]: the IC50 amounted to 59 nM.
